The values below come from PubChem BioAssay (NCI).

Some test systems named below: NCI-H23 lung; MDA-MB-231 breast; CAKI-1 renal; KM12 colon; HOP-92 NSCLC; RXF 393 renal; A549 NSCLC; EKVX NSCLC; SK-OV-3 ovarian; BT-549 breast; MOLT-4 leukemia; HOP-62 NSCLC; RPMI-8226 leukemia; MALME-3M melanoma; HCT-116 colon; SK-MEL-5 melanoma; MDA-N; COLO 205 colon; UACC-257 melanoma.
Assay in all cases: DTP human tumour cell line panel, 48 h

Molecules are shown by their SMILES.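 Five compound concentrations were applied to cells in 96-well plates for 48 hours; endpoints were derived by simple linear interpolation of the resulting dose-response curve. TGI is the concentration that stops growth completely.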

As for `CC(=O)N(O)[C@@H]1CC[C@H](n2cnc3c(N)ncnc32)C1`, the TGI in the assay with NCI-H23 lung, in the assay on MDA-MB-231 breast, in the assay with CAKI-1 renal, with KM12 colon, in the assay on HOP-92 NSCLC and in the assay on RXF 393 renal was above 100 µM in each case. Also, the TGI in the assay on A549 NSCLC, in the assay with EKVX NSCLC, with SK-OV-3 ovarian, with BT-549 breast, with MOLT-4 leukemia and with HOP-62 NSCLC was above 100 µM each time. Moreover, the TGI in the assay on RPMI-8226 leukemia, in the assay with MALME-3M melanoma, in the assay on HCT-116 colon, in the assay on SK-MEL-5 melanoma, with MDA-N and in the assay on COLO 205 colon was above 100 µM each time. Besides, the concentration for total growth inhibition (TGI) (in general, the concentration at which net growth stops) in the assay on UACC-257 melanoma was above 100 µM.
As to `Nc1nc(Cl)cc(NCCC2(CO)CCC2)n1`, the TGI with NCI-H23 lung, in the assay with MDA-MB-231 breast, in the assay on CAKI-1 renal, in the assay with KM12 colon, in the assay with HOP-92 NSCLC and in the assay on RXF 393 renal was above 100 µM each time. The TGI in the assay with A549 NSCLC, with EKVX NSCLC, in the assay on SK-OV-3 ovarian, in the assay on BT-549 breast, in the assay on MOLT-4 leukemia and in the assay with HOP-62 NSCLC was above 100 µM throughout. The TGI with RPMI-8226 leukemia, in the assay on MALME-3M melanoma, with HCT-116 colon, with SK-MEL-5 melanoma, in the assay with MDA-N and in the assay with COLO 205 colon was above 100 µM each time. In addition, the TGI with UACC-257 melanoma was above 100 µM.
Consider `c1ccc2c(c1)ncn2C1CCCCO1` (stereo not given), for which the TGI in the assay with NCI-H23 lung, with MDA-MB-231 breast, with KM12 colon, in the assay on HOP-92 NSCLC, with RXF 393 renal and with A549 NSCLC was above 100 µM in each case. For the same compound, the TGI with EKVX NSCLC, in the assay on SK-OV-3 ovarian, with BT-549 breast, with MOLT-4 leukemia, with HOP-62 NSCLC and in the assay on RPMI-8226 leukemia was above 100 µM throughout. Besides, the concentration for total growth inhibition (TGI) in the assay on MALME-3M melanoma, in the assay on HCT-116 colon, in the assay on SK-MEL-5 melanoma, in the assay on MDA-N, in the assay on COLO 205 colon and in the assay with UACC-257 melanoma was above 100 µM throughout.
With `O=c1[nH]c(Nc2cc(Cl)cc(Cl)c2)nc2nc[nH]c12`, the TGI in the assay on NCI-H23 lung, in the assay on MDA-MB-231 breast, in the assay on CAKI-1 renal, in the assay with KM12 colon, in the assay with HOP-92 NSCLC and in the assay with RXF 393 renal was above 75 µM in each case. Moreover, the TGI in the assay with A549 NSCLC, in the assay with EKVX NSCLC, in the assay on SK-OV-3 ovarian, in the assay on BT-549 breast, in the assay with MOLT-4 leukemia and in the assay on HOP-62 NSCLC was above 75 µM each time. Further, the TGI in the assay on RPMI-8226 leukemia, in the assay on MALME-3M melanoma, in the assay on HCT-116 colon, with SK-MEL-5 melanoma, in the assay on MDA-N and in the assay on COLO 205 colon was above 75 µM each time. This compound also gave a TGI in the assay with UACC-257 melanoma above 75 µM.
As to `CCOC(=O)c1c(N2CCCC2)[nH]c(=O)c(C(c2ccco2)c2c(O)c(C(=O)OCC)c(N3CCCC3)[nH]c2=O)c1O`, the TGI in the assay with NCI-H23 lung, in the assay on MDA-MB-231 breast, in the assay on CAKI-1 renal, in the assay with KM12 colon, with HOP-92 NSCLC and in the assay with RXF 393 renal was above 100 µM in each case. The TGI in the assay on A549 NSCLC, in the assay on EKVX NSCLC, in the assay on SK-OV-3 ovarian, in the assay on BT-549 breast, in the assay with MOLT-4 leukemia and in the assay with HOP-62 NSCLC was above 100 µM throughout. The TGI with RPMI-8226 leukemia, with MALME-3M melanoma, with HCT-116 colon, in the assay with SK-MEL-5 melanoma, in the assay with MDA-N and in the assay on COLO 205 colon was above 100 µM each time. Also, the TGI in the assay with UACC-257 melanoma was above 100 µM.
As for `CCCCCCCCCCCCOP(=O)(O)OCC(N)C(=O)O` (stereo not given), the TGI in the assay on NCI-H23 lung was above 100 µM; in the assay on MDA-MB-231 breast, 58 µM; in the assay with CAKI-1 renal, 95.8 µM; with HOP-92 NSCLC, 43.3 µM; with RXF 393 renal it was above 100 µM; in the assay on A549 NSCLC, above 100 µM. Moreover, the TGI was above 100 µM with EKVX NSCLC; 50.1 µM in the assay with SK-OV-3 ovarian; 64 µM with BT-549 breast; 36.2 µM in the assay on MOLT-4 leukemia; 31.6 µM with HOP-62 NSCLC; 68.5 µM with RPMI-8226 leukemia. Further, the TGI with MALME-3M melanoma is above 100 µM; in the assay with HCT-116 colon, 27.6 µM; in the assay with SK-MEL-5 melanoma, 61.7 µM; in the assay with MDA-N, 62.6 µM; in the assay on COLO 205 colon, above 100 µM; in the assay with UACC-257 melanoma, above 100 µM.
As for `O=C(CCCCCCC(=O)Nc1cccnc1)NO`, the TGI was above 100 µM in the assay with NCI-H23 lung; above 100 µM in the assay with MDA-MB-231 breast; above 100 µM with CAKI-1 renal; above 44.6 µM in the assay on KM12 colon; above 100 µM in the assay on HOP-92 NSCLC; 31 µM in the assay with RXF 393 renal. Further, the TGI with A549 NSCLC was above 100 µM; in the assay on EKVX NSCLC, above 100 µM; in the assay with SK-OV-3 ovarian it was above 71.8 µM; in the assay with BT-549 breast, above 100 µM; with MOLT-4 leukemia it was above 100 µM; in the assay with HOP-62 NSCLC, above 100 µM. The TGI was above 29.4 µM in the assay with RPMI-8226 leukemia; above 100 µM in the assay on MALME-3M melanoma; above 100 µM in the assay on HCT-116 colon; above 25.6 µM in the assay on MDA-N; above 20.5 µM in the assay with COLO 205 colon; 87.7 µM with UACC-257 melanoma.
